These results are taken from patent US20050070500A1, “Method of modulating release of saccharides and uses thereof” (priority 2001, published 2005).

Like-named read-outs stand apart in the source and are kept apart here.

For data set [1] the following is noted: subcutaneous; patient not affected by ACTH or Prednisone; several weeks of treatment; cited from earlier work.
The nature of another data set: in vivo. The settings on record: male, beagle, dog. From the text: This study was undertaken to determine the safety of Products X and Y, and to determine the pharmacokinetic profiles of Products X, Y, and a commercially available oral glucosamine formulation (Glucosamine) following a single oral and intravenous administration to beagle dogs. The pharmacokinetic profiles were examined for indications of sustained or slow release of glucosamine by Products X and Y.
A total of nine (9) male Beagle dogs were used during this study. The animals were assigned to three treatment groups of 3 animals/group. Group 1 received low dose Products X, Y and Glucosamine by oral administration on Days 1, 8 and 15, respectively. Group 2 animals received high dose Products X and Y by oral administration on Days 1 and 8, respectively, and Group 3 animals received low dose Products X and Y by intravenous injection on Days 1 and 8, respectively. Low and high dose animals were administered nominal dose levels of 21.4 mg/kg and 214 mg/kg, respectively. These levels approximated 1× and 10× the standard daily oral glucosamine consumption (1500 mg) for an average human (70 kg standard body weight). The commercial glucosamine was assumed to contain 100% active ingredient.
The following parameters were recorded throughout the study: mortality, clinical signs, body weight and clinical pathology (hematology, coagulation and clinical chemistry). Serial blood samples were collected from all animals for pharmacokinetic profiling following each dosing.
Samples were collected via the jugular vein, at: 0 (pre-dose), 15, 30, 60, 120 minutes post-dose. A 5 minute post-dose sample was included for Group 3.

The conditions of data set [2]: dogs, cited from earlier work.
The conditions of data set [3]: humans, cited from earlier work.

As to `Cl.N[C@H]1C(O)O[C@H](CO)[C@@H](O)[C@@H]1O` (stereo partly drawn) [D-glucosamine-HCl], in data set [1], the “symptoms of Crohn's Disease” value is on record as “symptoms stopped”.

As a reminder, the AUC is the area under the concentration-time curve, a measure of exposure. A lower AUC goes with low exposure. On to `N[C@H]1C(O)O[C@H](CO)[C@@H](O)[C@@H]1O` (stereo partly shown) [Glucosamine, glucosamine], for which the “time of peak serum glucosamine level post-dose” value in “in vivo” was 60 min. Also, in “in vivo” (po, 21.4 mg/kg), the AUC worked out at 1650 ng·h/mL, the concentration at 120 minutes amounted to 533 ± 188 ng/mL and the “ratio of glucosamine delivered into the serum (oral glucosamine = 100)” value amounted to 100. The “group mean serum glucosamine level at 120 minutes post-dose” value in “in vivo” (po, 21.4 mg/kg, 120 minutes) worked out at 533 ng/mL. In addition, the “glucosamine found in urine” value in data set [2] (after 144 hours) is given as “about 10%”. Moreover, in data set [2], the gastrointestinal absorption result is “about 87%”. Besides, the “glucosamine found in urine” value in data set [3] (after 144 hours) is given as approximately 11%. Moreover, the gastrointestinal absorption in data set [3] is approximately 90%.
